Measured values from ChEMBL document CHEMBL5653631, “A Potent and Selective ULK1 Inhibitor Suppresses Autophagy and Sensitizes Cancer Cells to Nutrient Stress” (iScience, 2018).
One block for each compound: values may come before it.

Legend:
[1] = target: Serine/threonine-protein kinase PAK 5 (Homo sapiens) (UniProt Q9P286); assay: Inhibition of human recombinant PAK5 at 500 nM in presence of ATP by radiometric assay relative to control
[2] = target: Vascular endothelial growth factor receptor 3 (Homo sapiens) (UniProt P35916); assay: Inhibition of human recombinant FLT4 at 500 nM related to control ULK1
[3] = target: Serine/threonine-protein kinase 26 (Homo sapiens) (UniProt Q9P289); assay: Inhibition of human recombinant MST4 at 500 nM related to control ULK1
[4] = target: Serine/threonine-protein kinase MARK2 (Homo sapiens) (UniProt Q7KZI7); assay: Inhibition of human recombinant MARK2 at 500 nM in presence of ATP by radiometric assay relative to control
[5] = target: Serine/threonine-protein kinase PAK 3 (Homo sapiens) (UniProt O75914); assay: Inhibition of human recombinant PAK3 at 15 nM in presence of ATP by radiometric assay relative to control
[6] = target: T1, cGMP-dependent protein kinase 2 (Homo sapiens) (UniProt Q13237); assay: Inhibition of human recombinant PKG2 at 15 nM related to control ULK1
T1 sequence (whole entry): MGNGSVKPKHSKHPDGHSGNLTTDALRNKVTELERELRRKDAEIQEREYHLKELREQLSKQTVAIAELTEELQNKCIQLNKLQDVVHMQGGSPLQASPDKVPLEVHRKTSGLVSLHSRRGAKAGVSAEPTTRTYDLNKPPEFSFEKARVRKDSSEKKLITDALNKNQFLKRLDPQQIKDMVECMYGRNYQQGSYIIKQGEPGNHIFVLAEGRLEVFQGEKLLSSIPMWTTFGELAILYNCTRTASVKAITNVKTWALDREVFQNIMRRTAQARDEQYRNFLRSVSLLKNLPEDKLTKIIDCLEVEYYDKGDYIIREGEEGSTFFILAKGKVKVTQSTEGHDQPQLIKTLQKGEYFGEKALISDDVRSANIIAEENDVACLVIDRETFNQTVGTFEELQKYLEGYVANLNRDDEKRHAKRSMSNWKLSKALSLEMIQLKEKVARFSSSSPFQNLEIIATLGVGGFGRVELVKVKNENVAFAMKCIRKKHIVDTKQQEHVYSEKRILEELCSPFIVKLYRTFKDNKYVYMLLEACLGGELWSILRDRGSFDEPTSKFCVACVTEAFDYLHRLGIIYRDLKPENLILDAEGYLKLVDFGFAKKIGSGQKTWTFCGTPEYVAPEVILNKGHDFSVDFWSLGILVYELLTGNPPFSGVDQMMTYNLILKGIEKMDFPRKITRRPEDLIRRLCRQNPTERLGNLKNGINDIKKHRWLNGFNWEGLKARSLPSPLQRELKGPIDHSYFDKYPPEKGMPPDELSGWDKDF

[7] = target: Mitogen-activated protein kinase 11 (Homo sapiens) (UniProt Q15759); assay: Inhibition of human recombinant p38beta at 15 nM related to control ULK1
[8] = target: MAP kinase-activated protein kinase 2 (Homo sapiens) (UniProt P49137); assay: Inhibition of human recombinant MAPKAPK2 at 15 nM in presence of ATP by radiometric assay relative to control
[9] = target: SRSF protein kinase 3 (Homo sapiens) (UniProt Q9UPE1); assay: Inhibition of human recombinant MSSK1 at 15 nM in presence of ATP by radiometric assay relative to control
[10] = target: Dual specificity protein kinase CLK4 (Homo sapiens) (UniProt Q9HAZ1); assay: Inhibition of human recombinant CLK4 at 15 nM in presence of ATP by radiometric assay relative to control
[11] = target: T2, Serine/threonine-protein kinase ICK (Homo sapiens) (UniProt Q9UPZ9); assay: Inhibition of human recombinant ICK at 40 nM in presence of ATP by radiometric assay relative to control
T2 sequence (whole entry): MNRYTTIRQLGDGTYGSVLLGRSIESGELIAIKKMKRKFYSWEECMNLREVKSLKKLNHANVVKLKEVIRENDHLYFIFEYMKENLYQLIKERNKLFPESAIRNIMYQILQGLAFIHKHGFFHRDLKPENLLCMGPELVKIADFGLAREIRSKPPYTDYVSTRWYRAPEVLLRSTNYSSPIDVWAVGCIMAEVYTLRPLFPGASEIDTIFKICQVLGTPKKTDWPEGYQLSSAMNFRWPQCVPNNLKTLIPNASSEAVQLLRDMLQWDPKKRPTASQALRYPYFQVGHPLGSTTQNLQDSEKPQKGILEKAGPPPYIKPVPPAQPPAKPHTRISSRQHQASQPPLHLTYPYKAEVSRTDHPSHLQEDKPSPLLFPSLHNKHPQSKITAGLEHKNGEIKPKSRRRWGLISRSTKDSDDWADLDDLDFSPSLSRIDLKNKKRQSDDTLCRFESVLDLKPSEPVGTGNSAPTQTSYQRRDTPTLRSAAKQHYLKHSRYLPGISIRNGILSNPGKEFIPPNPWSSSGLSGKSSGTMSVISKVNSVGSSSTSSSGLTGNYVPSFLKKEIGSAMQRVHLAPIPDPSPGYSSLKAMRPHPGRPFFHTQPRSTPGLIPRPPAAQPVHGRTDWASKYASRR

[12] = target: T3, Protein kinase C epsilon type (Homo sapiens) (UniProt Q02156); assay: Inhibition of human recombinant PKCe at 40 nM in presence of ATP by radiometric assay relative to control
T3 sequence (whole entry): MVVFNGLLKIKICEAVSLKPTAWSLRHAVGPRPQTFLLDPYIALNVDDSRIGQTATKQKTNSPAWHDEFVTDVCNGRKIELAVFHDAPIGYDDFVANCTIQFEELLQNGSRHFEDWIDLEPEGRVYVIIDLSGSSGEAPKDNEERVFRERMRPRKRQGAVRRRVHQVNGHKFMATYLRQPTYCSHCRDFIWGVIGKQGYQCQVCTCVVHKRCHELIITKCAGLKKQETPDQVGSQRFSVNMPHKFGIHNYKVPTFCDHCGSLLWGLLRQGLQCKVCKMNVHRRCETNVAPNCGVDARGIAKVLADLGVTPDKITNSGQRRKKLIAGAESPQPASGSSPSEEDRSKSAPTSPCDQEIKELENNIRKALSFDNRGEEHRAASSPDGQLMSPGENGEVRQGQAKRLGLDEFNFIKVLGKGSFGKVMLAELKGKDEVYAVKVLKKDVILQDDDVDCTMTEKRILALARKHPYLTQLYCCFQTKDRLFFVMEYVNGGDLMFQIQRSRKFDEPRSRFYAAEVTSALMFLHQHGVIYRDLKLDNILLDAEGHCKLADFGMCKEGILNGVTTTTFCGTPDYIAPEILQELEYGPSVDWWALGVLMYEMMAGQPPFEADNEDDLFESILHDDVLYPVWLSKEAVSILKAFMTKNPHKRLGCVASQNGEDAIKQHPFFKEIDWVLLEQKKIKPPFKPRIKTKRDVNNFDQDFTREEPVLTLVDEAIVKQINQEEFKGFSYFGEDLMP

Chain of Dual specificity protein kinase CLK4 (Homo sapiens) (Q9HAZ1 whole entry, looked up): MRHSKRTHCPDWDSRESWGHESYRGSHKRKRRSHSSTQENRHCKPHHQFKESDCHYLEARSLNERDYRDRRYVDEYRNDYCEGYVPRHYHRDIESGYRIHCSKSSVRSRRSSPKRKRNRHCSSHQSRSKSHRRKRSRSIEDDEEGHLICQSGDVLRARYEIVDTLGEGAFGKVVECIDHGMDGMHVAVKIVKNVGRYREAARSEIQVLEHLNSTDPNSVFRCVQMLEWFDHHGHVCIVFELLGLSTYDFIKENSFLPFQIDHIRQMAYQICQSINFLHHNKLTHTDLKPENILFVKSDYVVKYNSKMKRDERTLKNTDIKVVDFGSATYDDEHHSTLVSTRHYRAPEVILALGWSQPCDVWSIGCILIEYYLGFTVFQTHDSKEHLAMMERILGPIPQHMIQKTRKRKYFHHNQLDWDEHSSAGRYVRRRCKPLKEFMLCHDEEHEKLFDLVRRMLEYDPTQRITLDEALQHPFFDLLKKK
Chain of Serine/threonine-protein kinase PAK 3 (Homo sapiens) (O75914 whole entry, looked up): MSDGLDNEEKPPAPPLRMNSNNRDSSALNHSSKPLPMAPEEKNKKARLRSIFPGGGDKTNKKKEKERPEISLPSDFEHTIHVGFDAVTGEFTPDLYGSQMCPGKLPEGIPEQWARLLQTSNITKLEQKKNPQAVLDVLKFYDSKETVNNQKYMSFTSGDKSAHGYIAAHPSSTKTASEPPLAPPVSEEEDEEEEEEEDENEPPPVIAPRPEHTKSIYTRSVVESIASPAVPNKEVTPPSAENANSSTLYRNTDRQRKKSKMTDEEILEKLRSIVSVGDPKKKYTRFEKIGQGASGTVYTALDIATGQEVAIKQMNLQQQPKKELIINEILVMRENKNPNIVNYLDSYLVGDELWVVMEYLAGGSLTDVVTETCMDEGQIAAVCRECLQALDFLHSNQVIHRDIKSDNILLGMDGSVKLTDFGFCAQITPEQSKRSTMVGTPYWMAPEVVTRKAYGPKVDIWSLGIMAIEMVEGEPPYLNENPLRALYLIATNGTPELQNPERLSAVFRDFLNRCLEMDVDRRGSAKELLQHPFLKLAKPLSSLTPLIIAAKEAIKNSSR
Chain of MAP kinase-activated protein kinase 2 (Homo sapiens) (P49137 whole entry, looked up): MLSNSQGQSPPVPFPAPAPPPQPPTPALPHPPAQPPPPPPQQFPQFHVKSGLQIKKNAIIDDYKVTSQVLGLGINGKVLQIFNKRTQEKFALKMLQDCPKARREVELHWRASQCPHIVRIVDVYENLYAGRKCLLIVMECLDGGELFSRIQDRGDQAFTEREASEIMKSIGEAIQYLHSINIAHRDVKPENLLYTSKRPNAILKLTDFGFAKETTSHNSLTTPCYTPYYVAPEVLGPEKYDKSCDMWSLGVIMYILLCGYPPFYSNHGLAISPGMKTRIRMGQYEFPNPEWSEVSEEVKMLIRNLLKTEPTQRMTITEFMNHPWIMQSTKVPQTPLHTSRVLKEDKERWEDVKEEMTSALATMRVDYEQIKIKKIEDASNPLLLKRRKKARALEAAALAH
Chain of SRSF protein kinase 3 (Homo sapiens) (Q9UPE1 whole entry): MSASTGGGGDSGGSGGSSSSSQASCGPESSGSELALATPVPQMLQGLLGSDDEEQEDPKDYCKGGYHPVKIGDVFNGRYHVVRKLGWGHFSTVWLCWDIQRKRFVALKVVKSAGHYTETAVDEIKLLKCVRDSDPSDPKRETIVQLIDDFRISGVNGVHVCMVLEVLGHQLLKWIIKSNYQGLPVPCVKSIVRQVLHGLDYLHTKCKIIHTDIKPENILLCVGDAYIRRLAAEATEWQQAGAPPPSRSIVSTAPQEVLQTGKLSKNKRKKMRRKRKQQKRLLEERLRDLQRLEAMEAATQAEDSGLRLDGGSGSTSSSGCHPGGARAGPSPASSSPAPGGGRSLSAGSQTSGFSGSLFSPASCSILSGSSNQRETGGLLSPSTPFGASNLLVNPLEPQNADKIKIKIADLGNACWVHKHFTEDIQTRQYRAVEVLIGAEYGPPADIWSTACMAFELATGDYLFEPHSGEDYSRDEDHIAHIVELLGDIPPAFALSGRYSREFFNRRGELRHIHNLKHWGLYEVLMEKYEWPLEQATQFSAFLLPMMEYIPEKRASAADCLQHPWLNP
Chain of Mitogen-activated protein kinase 11 (Homo sapiens) (Q15759 whole entry): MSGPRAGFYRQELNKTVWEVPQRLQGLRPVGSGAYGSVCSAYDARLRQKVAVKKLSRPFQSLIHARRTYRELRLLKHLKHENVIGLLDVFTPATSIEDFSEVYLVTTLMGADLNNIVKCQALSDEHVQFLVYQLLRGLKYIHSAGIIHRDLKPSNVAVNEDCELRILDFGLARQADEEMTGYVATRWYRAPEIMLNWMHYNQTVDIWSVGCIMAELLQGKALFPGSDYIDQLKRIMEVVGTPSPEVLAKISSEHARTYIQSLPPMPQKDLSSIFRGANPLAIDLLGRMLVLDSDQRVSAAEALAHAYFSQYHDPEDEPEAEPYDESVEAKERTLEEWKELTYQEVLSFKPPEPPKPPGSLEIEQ
Chain of Serine/threonine-protein kinase 26 (Homo sapiens) (Q9P289 2-416 limits assumed): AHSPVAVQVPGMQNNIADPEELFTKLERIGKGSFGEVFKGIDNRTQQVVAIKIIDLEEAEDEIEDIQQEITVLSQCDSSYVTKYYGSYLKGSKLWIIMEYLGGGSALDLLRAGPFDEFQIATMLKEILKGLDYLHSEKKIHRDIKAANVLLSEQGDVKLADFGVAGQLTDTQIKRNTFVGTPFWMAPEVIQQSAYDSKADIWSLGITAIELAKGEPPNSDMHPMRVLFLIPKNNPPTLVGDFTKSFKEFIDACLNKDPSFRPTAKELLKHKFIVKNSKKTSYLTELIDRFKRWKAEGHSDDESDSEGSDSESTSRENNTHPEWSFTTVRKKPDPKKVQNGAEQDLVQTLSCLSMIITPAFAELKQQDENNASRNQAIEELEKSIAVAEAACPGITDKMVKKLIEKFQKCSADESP
Chain of Vascular endothelial growth factor receptor 3 (Homo sapiens) (P35916 whole entry): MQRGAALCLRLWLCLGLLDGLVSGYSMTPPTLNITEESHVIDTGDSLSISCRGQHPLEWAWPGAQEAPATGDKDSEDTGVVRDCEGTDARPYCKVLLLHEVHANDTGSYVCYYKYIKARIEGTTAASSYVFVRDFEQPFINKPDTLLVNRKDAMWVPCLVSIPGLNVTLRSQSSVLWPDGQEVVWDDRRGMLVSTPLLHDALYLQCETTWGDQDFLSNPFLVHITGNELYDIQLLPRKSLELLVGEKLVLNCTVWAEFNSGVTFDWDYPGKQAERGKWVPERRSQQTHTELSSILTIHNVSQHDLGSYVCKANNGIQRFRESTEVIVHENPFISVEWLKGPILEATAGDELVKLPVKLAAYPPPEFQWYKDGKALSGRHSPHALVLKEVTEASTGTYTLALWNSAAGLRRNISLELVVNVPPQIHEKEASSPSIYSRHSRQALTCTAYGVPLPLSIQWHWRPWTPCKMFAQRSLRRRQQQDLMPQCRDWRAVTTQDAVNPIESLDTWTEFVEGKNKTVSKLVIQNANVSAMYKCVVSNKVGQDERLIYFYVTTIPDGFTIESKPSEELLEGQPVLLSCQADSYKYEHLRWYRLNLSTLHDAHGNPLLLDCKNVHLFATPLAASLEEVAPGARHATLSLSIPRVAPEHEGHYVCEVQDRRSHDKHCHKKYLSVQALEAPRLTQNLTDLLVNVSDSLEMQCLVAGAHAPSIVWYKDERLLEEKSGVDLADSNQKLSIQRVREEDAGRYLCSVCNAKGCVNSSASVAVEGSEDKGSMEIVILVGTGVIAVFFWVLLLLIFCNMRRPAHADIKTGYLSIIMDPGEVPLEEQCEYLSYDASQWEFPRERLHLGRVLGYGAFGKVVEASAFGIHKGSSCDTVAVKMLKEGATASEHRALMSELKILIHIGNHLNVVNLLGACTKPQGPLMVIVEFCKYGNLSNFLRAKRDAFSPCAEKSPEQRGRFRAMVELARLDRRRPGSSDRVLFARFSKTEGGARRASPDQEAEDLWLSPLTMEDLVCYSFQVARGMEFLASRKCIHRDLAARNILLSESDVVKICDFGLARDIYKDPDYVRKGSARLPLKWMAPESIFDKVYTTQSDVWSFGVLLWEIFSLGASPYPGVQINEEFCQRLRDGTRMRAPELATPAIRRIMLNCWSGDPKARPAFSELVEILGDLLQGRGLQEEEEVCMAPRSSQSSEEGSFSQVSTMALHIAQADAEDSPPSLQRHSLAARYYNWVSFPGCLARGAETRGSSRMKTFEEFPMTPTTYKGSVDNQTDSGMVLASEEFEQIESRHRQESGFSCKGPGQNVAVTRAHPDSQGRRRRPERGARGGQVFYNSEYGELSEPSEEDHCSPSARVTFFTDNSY
Chain of Serine/threonine-protein kinase PAK 5 (Homo sapiens) (Q9P286 whole entry, looked up): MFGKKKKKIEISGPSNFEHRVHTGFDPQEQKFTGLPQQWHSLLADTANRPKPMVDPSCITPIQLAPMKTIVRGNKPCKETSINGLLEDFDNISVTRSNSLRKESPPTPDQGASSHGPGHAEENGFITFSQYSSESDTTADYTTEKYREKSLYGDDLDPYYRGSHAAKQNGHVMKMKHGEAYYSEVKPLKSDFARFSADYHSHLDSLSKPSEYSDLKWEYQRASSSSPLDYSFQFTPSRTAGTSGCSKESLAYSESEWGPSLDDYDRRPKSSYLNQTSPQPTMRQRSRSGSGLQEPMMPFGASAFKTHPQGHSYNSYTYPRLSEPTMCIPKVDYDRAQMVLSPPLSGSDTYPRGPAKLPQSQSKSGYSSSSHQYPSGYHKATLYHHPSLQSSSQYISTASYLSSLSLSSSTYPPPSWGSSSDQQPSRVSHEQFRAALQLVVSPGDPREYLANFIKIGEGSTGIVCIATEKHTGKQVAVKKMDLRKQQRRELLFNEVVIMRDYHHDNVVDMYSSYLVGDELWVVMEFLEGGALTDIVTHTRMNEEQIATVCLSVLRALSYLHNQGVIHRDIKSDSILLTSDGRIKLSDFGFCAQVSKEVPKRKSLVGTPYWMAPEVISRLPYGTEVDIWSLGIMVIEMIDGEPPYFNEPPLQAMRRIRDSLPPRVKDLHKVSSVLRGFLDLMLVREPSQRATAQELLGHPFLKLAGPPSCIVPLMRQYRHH

inhibition [1]: 5% | fold change (FC) [2]: 0.31 | fold change (FC) [3]: 0 | inhibition [4]: 50%
SMILES: CNC(=O)c1ccccc1Oc1nc(Nc2cc(OC)c(OC)c(OC)c2)ncc1Br

inhibition [5]: 4% | fold change (FC) [6]: 0.05 | fold change (FC) [7]: 0.01 | inhibition [8]: 0% | inhibition [9]: 0% | inhibition [10]: 83%
SMILES: CC(C)[C@H](NC(=O)c1cc(-c2cnn3cc(-c4ccc(OCCN5CCCCC5)cc4)cnc23)cs1)C(F)(F)F

inhibition [11]: 0% | inhibition [12]: 0%
SMILES: O=C(N[C@@H](C1CC1)C(F)(F)F)c1cc(-c2cnn3cc(-c4ccc(F)cc4)cnc23)cs1
